Among the data in PubChem BioAssay (NCI) are TGI values, retold here.

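Method: 48-hour compound exposure of cells in 96-well plates, five concentrations, linear interpolation of endpoints. TGI: concentration producing complete growth inhibition.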 Where only a bound is given, the exact number is not on record here.

Test systems include 786-0 renal; A498 renal; ACHN renal; DU-145 prostate; HCC-2998 colon; HS 578T breast; MDA-MB-231 breast; MDA-MB-435; MDA-N; PC-3 prostate; SF-295 CNS; SR leukemia.
What all share (assay): NCI-60 cell line screen, 48 h

As to `O=C1C(c2c(O)[nH]c3ccc(Cl)cc23)=Nc2ccccc21`, the TGI in the assay on 786-0 renal is 3.9 µM; with A498 renal it was 13.1 µM; in the assay on ACHN renal, 20.3 µM; in the assay with DU-145 prostate, over 25.9 µM; in the assay with HCC-2998 colon it was over 26.8 µM; in the assay on HS 578T breast, 24.1 µM. The TGI in the assay on MDA-MB-231 breast was 6.9 µM; with MDA-MB-435, over 100 µM; in the assay with MDA-N, over 100 µM; in the assay on PC-3 prostate, over 28 µM; in the assay on SF-295 CNS, over 78.8 µM; in the assay on SR leukemia, over 100 µM.

With `NNC(=O)CCc1ccc2ccc3ccccc3c2c1`, the TGI in the assay with 786-0 renal, in the assay with A498 renal, in the assay on ACHN renal, in the assay with DU-145 prostate, in the assay with HCC-2998 colon and with HS 578T breast was over 100 µM throughout. The TGI with MDA-MB-231 breast, in the assay on MDA-MB-435, in the assay on MDA-N, with PC-3 prostate, in the assay on SF-295 CNS and in the assay with SR leukemia was over 100 µM each time.

`CC[C@@H]([C@H](O)c1ccccc1Cl)[N+](=O)[O-]`: the TGI in the assay with 786-0 renal, in the assay on A498 renal, in the assay with ACHN renal, in the assay with DU-145 prostate, with HCC-2998 colon and in the assay with HS 578T breast was over 100 µM in each case. Besides, the TGI in the assay on MDA-MB-231 breast, with MDA-MB-435, in the assay on MDA-N, with PC-3 prostate, in the assay with SF-295 CNS and in the assay on SR leukemia was over 100 µM each time.

`CN(c1ccccc1)c1nc(=[N+]2CCCC2)ss1`: the TGI with 786-0 renal, in the assay with A498 renal, in the assay with ACHN renal, in the assay with HCC-2998 colon and with SR leukemia was over 100 µM in each case.

Turning to `Cc1cccc2c1Sc1ccccc1C2NC(=O)CN(C)C` (stereo unspecified), the TGI in the assay on ACHN renal, in the assay on HCC-2998 colon and in the assay with SR leukemia was over 100 µM in each case.

In the case of `O=C(Sc1n[nH]c(=O)[nH]c1=O)c1cccc2nc3ccccc3nc12`, the TGI was over 100 µM in the assay on 786-0 renal; over 100 µM with A498 renal; over 100 µM with ACHN renal; 36.2 µM in the assay with DU-145 prostate; over 100 µM in the assay with HCC-2998 colon; 77.8 µM with HS 578T breast. Further, the TGI with MDA-MB-231 breast was over 100 µM; with MDA-MB-435, 29 µM; with MDA-N, 28.6 µM; in the assay on SF-295 CNS, over 100 µM; in the assay with SR leukemia, over 100 µM.

For `c1ccc(C2=NN=C3C(c4ccccc4)=Nc4ccccc4N3C2)cc1`, the TGI is over 100 µM with 786-0 renal; over 100 µM with A498 renal; over 100 µM with ACHN renal; over 100 µM in the assay on DU-145 prostate; over 100 µM in the assay on HCC-2998 colon; 67.5 µM with HS 578T breast. In addition, the TGI is over 100 µM in the assay on MDA-MB-231 breast, 98.7 µM in the assay on MDA-MB-435, over 100 µM with MDA-N and over 100 µM in the assay with PC-3 prostate.

As to `CO/C=C1\OC(=O)C=C1OC`, the TGI in the assay on A498 renal, in the assay on HCC-2998 colon and with SF-295 CNS was over 100 µM in each case.

For `CC(C)(C)C1=CC(=C2C=Cc3cc(O)ccc3O2)C=C(C(C)(C)C)C1=O`, the TGI was determined as 2.68 µM in the assay on 786-0 renal; 2.85 µM with A498 renal; 3.06 µM in the assay on ACHN renal; 3.03 µM in the assay with DU-145 prostate; 2.54 µM in the assay on HCC-2998 colon; 8.22 µM with HS 578T breast. Moreover, the TGI in the assay on MDA-MB-231 breast came out at 3.18 µM; in the assay with MDA-MB-435 it was 3.55 µM; with PC-3 prostate it was 3.01 µM; in the assay with SF-295 CNS, 3.45 µM; in the assay with SR leukemia, 3.86 µM.

As to `O=C(Cn1c(C(=O)/C=C/c2ccc(Cl)cc2)nc2ccccc21)c1ccc(Cl)cc1`, the TGI with 786-0 renal was 66.8 µM; with A498 renal, over 100 µM; in the assay with ACHN renal it was 72.5 µM; in the assay with DU-145 prostate it was 56.1 µM; in the assay on HCC-2998 colon it was 32.4 µM; in the assay with HS 578T breast it was 29.1 µM. The TGI in the assay with MDA-MB-231 breast is 52 µM; with MDA-MB-435, 37.5 µM; in the assay on MDA-N, 61 µM; with PC-3 prostate, over 100 µM; in the assay on SR leukemia, 22.9 µM.

Regarding `Nc1ccc(Cn2ccc3c4c(N)nc(N)nc4ccc32)cc1`, the TGI in the assay on 786-0 renal was 16.4 µM; in the assay on ACHN renal it was 6.58 µM; in the assay with DU-145 prostate, 14.3 µM; in the assay on HCC-2998 colon it was 3 µM; in the assay on HS 578T breast, 7.32 µM; in the assay with MDA-MB-231 breast, 3.48 µM. The TGI in the assay on MDA-MB-435 came to 6.15 µM; with MDA-N, 14.2 µM; in the assay with PC-3 prostate it was 16.8 µM; in the assay on SF-295 CNS it was 2.15 µM; with SR leukemia, 4.74 µM.

Turning to `CC1(C)N=C(c2ccccc2)SC12S[C@@H]1CCCC[C@H]1S2`, the TGI in the assay with A498 renal was 33.9 µM; in the assay with ACHN renal, over 100 µM; in the assay with DU-145 prostate, over 100 µM; with HS 578T breast, 16.8 µM; with MDA-MB-231 breast, over 100 µM; in the assay with MDA-MB-435 it was over 100 µM. The TGI in the assay with MDA-N was 93.5 µM; in the assay on PC-3 prostate it was over 100 µM; with SF-295 CNS it was over 100 µM.

With `N#C/C(=C\c1ccc([N+](=O)[O-])o1)c1n[nH]c(Cc2ccccc2)n1`, the TGI in the assay with 786-0 renal was found to be 3.85 µM; in the assay on A498 renal it was 14.6 µM; in the assay with ACHN renal, 4.11 µM; with DU-145 prostate, 3 µM; in the assay with HCC-2998 colon it was 3.12 µM; in the assay with HS 578T breast, 21 µM. Also, the TGI with MDA-MB-231 breast was found to be 5 µM; with MDA-MB-435, 6.92 µM; in the assay with MDA-N it was 4.52 µM; in the assay on PC-3 prostate, 7.43 µM; with SF-295 CNS it was 20.1 µM.
